Assay results published in patent EP1144011B1, “PRODRUG COMPOUNDS AND PROCESS FOR PREPARATION THEREOF” (Coulter Pharmaceutical, Inc., priority 1998, dated 2000).
Square brackets hold non-standard residues; d marks the D form. Peptide text beside a SMILES is read from it. * marks the point of attachment. Sta = CC(C)C[C@H](N)[C@@H](O)CC(=O)O; Isovaleryl = CC(C)CC(=O)*

Key:
[1] = tested on: Carcinoma cell trouase; experiment: Inhibition and re-activation of carcinoma cell trouase; type: biochemical; settings: for inhibition of trouase: carcinoma cell trouase
[2] = Aggregation: filtration through Centricon filter units of different MWCO; type: physicochemical; settings: 17.4 µMol/ml in distilled water, 2 hr at 1500g; for 3000 MWCO Filt.: quantitated at λ475 nm
Text: Sci., 73(6):766-770 (1984). Confalonieri, C. et al., The use of new laser particle sizer and shape analyser to detect and evaluate gelatinous microparticles suspended in reconstituted anthracycline infusion solutions, J. Pharmaceut. Biomed. Anal., 9(1):1-8 (1991). […] Each filter unit was centrifuged for 2 hr at 1500g force. […]

[3] = tested on: LS-174T human colorectal carcinoma; experiment: Nude mouse xenograft model, LS-174T; settings: repeated administration
[4] = Acute toxicity after intravenous injection in mice; type: in vivo; settings: iv bolus of 250 mg/kg (Dox-HCl eq.), three to five mice per group
[5] = tested on: trouase; experiment: Trouase cleavage of N-capped peptidyl-daunorubicin (defining characteristic); type: biochemical; settings: under appropriate assay conditions
Text: Trouase is the enzyme which is thought to be critical for specific activation of prodrug at the target tissue.

Compound: c1cnc2c(c1)ccc1cccnc12 [1,10-phenanthroline]
- inhibition of trouase [1]: inhibited

Compound: CCCNC(=O)[C@H]1O[C@@H]1C(=O)N[C@H](C(=O)N1CCC[C@H]1C(=O)O)[C@@H](C)CC [CA074]
- inhibition of trouase [1]: not

Compound: CC(C)C[C@H](NC(=O)[C@H]1O[C@@H]1C(=O)O)C(=O)NCCCCN=C(N)N [E64]
- inhibition of trouase [1]: not

Compound: O=C(O)CN(CCN(CC(=O)O)CC(=O)O)CC(=O)O [EDTA]
- inhibition of trouase [1]: inhibited

Compound: COc1cccc2c1C(=O)c1c(O)c3c(c(O)c1C2=O)C[C@@](O)(C(=O)CO)C[C@@H]3O[C@H]1C[C@H](N)[C@H](O)[C@H](C)O1 [doxorubicin]
- 3000 MWCO Filt. ([2]; passing through filter): 81%
- 3000 MWCO Filt. ([2]; passing through filter, listed as Dox): 81%
- 10000 MWCO Filt. ([2]; passing through filter): 82%
- 50000 MWCO Filt. ([2]; passing through filter): 93%
- 3000 MWCO Ret. ([2]; retained): 10%
- 10000 MWCO Ret. ([2]; retained): 2%
- 50000 MWCO Ret. ([2]; retained): 0.5%
- Dose limiting toxicity (cardiotoxicity and myelosuppression), dose at which observed [3]: ≥ 3 mg/kg

Compound: CO[C@@H]1[C@H](OC(=O)/C=C/C=C/C=C/C=C/C(=O)O)CC[C@]2(CO2)[C@H]1[C@@]1(C)O[C@@H]1CC=C(C)C [fumagillin]
- inhibition of trouase [1]: not

Compound: COc1cccc2c1C(=O)c1c(O)c3c(c(O)c1C2=O)CC(O)(C(=O)CO)CC3OC1CC(NC(=O)C(CC(C)C)NC(=O)C(C)NC(=O)C(CC(C)C)NC(=O)CCNC(=O)CCCC(=O)O)C(O)C(C)O1 (stereo not drawn) [glutaryl βAlaLeuAlaLeu-Dox, Gl-β-Ala-Leu-Ala-Leu-Dox]
- survival [4]: all animals survived up to 8 days

Compound: CC(=O)N[C@@H](CC(C)C)C(=O)N[C@@H](CC(C)C)C(=O)N[C@H](C=O)CCCNC(=N)N [leupeptin]
- inhibition of trouase [1]: not

Compound: CC(C)CC(=O)N[C@H](C(=O)N[C@H](C(=O)N[C@@H](CC(C)C)[C@@H](O)CC(=O)N[C@@H](C)C(=O)N[C@@H](CC(C)C)[C@@H](O)CC(=O)O)C(C)C)C(C)C [pepstatin] (Isovaleryl-VV[Sta]A[Sta]-OH)
- inhibition of trouase [1]: not

Compound: COc1cccc2c1C(=O)c1c(O)c3c(c(O)c1C2=O)C[C@@](O)(C(C)=O)C[C@@H]3O[C@H]1C[C@H](NC(=O)[C@H](CC(C)C)NC(=O)[C@H](C)NC(=O)[C@H](CC(C)C)NC(=O)CCNC(=O)CCC(=O)O)[C@H](O)[C@H](C)O1 [succinyl-βAlaLeuAlaLeu-Daunorubicin, Suc-β-Ala-Leu-Ala-Leu-Dnr]
- cleavage by trouase [5]: readily cleaves

Compound: CC[C@H](C)[C@H](NC(=O)CCNC(=O)CCC(=O)O)C(=O)N[C@@H](C)C(=O)N[C@@H](CC(C)C)C(=O)N[C@H]1C[C@H](O[C@H]2C[C@](O)(C(C)=O)Cc3c(O)c4c(c(O)c32)C(=O)c2c(OC)cccc2C4=O)O[C@@H](C)[C@H]1O [succinyl-βAlalleAlaLeu-Daunorubicin]
- trouase activity relative to succinyl-βAlaLeuAlaLeu-Daunorubicin [5]: at least twenty-fold less active

Compound: aminoethylbenzene-sufonate
- inhibition of trouase [1]: not

Compound: cobalt
- concentration that re-activates EDTA inactivated trouase [1]: 50 to 100 µM

Compound: cupric cations
- re-activation of EDTA inactivated trouase [1]: not

Compound: manganese
- concentration that re-activates EDTA inactivated trouase [1]: 50 to 1000 µM

Compound: zinc
- re-activation of EDTA inactivated trouase [1]: not
